18 molecules from article PMC6968547, “Design, synthesis and cholinesterase inhibitory properties of new oxazole benzylamine derivatives” (Journal of Enzyme Inhibition and Medicinal Chemistry, 2020) can be followed below.

Assay [1] deals with T1, BChE isolated from human plasma (Homo sapiens, UniProt P06276).
T1 construct: BChE isolated from human plasma; from tissue; host or cells: human plasma
Put plainly: Reversible inhibition of BChE, Ellman method. The assay is classed as biochemical. Conditions: for IC50: 0.1 M phosphate buffer pH 7.4, 25 °C, substrate ATCh, at least three experiments. The method, then: Inhibition potency of novel compounds was evaluated for recombinant human AChE (prepared as described earlier[25] and kindly donated by Prof Palmer Taylor, Skaggs School of Pharmacy and Pharmaceutical Sciences, University of California at San Diego, La Jolla, USA) and BChE isolated from human plasma (kindly donated by late Dr Douglas Cerasoli and Dr David Lenz, […], Edgewood, MD). The inhibition mixture contained a 0.1 M phosphate buffer, pH 7.4, enzyme, tested compound, and reagent, 5,5'-dithiobis(2-nitrobenzoic acid) (DTNB, 0.3 mM; Sigma Chemical Co., St. Louis, MO, USA). Enzyme activity was measured upon addition of substrate, acetylthiocholine (ATCh, 0.2 or 0.1 mM; Sigma Chemical Co., St. Louis, MO, USA) by the Ellman method[26] at 25 °C and 412 nm, on a Tecan Infinite M200PRO plate reader (Tecan Austria, GmbH, Salzburg, Austria). Due to the low solubility, a stock solution of the tested compounds was prepared in DMSO or methanol (Kemika, Zagreb, Croatia), and a corresponding solvent was in controls as well. The IC50 values were determined from at least three experiments by a nonlinear fit of the compound concentration logarithm values vs. % of enzyme activity using Prism6 software (GraphPad Prism 6 Software, San Diego, USA).
A general note: DTNB colorimetry detects thiols as they appear.

The next assay addresses T2, recombinant human AChE (Homo sapiens, UniProt P22303).
T2 construct: made in house
Put plainly: Reversible inhibition of AChE, Ellman method. The assay is classed as biochemical. Conditions: 0.1 M phosphate buffer pH 7.4, 25 °C, substrate ATCh; maximal tested concentration 100 µM for the trans derivatives (DMSO inhibits AChE); read-out: IC50 AChE (IC50 ± SE).

The mark [2] stands for this setting: read-out: IC50 BChE (IC50 ± SE).

Where two headings read alike, the source gives them in different places.

T2 sequence (P22303 32-614): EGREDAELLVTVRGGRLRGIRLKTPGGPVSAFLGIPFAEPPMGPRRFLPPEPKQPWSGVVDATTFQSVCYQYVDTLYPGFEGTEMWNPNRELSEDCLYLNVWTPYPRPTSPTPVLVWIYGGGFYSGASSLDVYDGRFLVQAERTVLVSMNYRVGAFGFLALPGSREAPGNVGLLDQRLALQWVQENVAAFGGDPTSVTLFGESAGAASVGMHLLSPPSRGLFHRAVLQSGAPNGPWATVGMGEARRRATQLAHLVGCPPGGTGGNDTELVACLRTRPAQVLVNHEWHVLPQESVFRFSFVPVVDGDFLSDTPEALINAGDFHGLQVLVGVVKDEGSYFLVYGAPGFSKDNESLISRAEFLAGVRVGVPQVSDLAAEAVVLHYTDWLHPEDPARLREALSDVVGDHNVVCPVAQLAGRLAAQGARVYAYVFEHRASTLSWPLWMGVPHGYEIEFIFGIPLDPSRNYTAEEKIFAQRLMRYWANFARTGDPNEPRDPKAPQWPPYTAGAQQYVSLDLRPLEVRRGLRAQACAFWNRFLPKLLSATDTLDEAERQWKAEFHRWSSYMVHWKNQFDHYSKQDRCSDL
T1 sequence (P06276 29-602): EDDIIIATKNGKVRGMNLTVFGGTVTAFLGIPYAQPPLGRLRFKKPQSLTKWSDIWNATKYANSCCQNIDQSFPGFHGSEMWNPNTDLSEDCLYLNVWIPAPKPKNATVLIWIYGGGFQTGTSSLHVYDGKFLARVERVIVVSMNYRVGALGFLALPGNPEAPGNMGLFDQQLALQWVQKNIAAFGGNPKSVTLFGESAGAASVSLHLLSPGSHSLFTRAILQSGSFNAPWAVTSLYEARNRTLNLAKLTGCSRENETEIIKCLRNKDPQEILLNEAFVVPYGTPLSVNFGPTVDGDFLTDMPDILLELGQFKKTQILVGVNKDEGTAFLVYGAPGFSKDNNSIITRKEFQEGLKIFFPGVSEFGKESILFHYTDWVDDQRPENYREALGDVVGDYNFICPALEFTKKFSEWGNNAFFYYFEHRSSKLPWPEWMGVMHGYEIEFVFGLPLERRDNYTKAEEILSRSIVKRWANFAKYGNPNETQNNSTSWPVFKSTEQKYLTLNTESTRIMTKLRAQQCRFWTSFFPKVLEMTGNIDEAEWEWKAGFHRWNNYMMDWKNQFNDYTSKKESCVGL

On to `c1ccc(CNc2ccc3ccc4ocnc4c3c2)cc1` [Compound 19, N-benzylnaphtho[1,2-d]oxazol-8-amine], for which the half-inhibitory concentration (IC50) (commonly the midpoint of a concentration-inhibition curve) in assay [1] (setting [2]) is 140 ± 24 µM; at recombinant human AChE, 68 ± 25 µM.

Regarding `Fc1ccc(CNc2ccc3ccc4ocnc4c3c2)cc1` [Compound 20, N-(4-fluorobenzyl)naphtho[1,2-d]oxazol-8-amine], the IC50 in assay [1] (setting [2]) was determined as 12 ± 1.3 µM; on recombinant human AChE, 45 ± 17 µM. The “fold higher potency for BChE than counterpart trans-6” value in assay [1] (ratio of IC50 vs trans-6) is “about 8 fold”.

Take `c1csc(CNc2ccc3ccc4ocnc4c3c2)c1` [Compound 21, N-(thiophen-2-ylmethyl)naphtho[1,2-d]oxazol-8-amine]: the IC50 turned out to be 35 ± 7.1 µM in assay [1] (setting [2]) and 51 ± 20 µM at recombinant human AChE.

On to `Nc1ccc2ccc3ocnc3c2c1` [Compound 23, Naphtho[1,2-d]oxazol-8-amine], for which the IC50 in assay [1] (setting [2]) turned out to be 1000 ± 650 µM; at recombinant human AChE, 120 ± 46 µM.

Regarding `CCN(CC)C(C)CN1c2ccccc2Sc2ccccc21` (centres unmarked) [Ethopropazine, reference compound], in assay [1] (IC50 BChE (IC50 ± SE)), inhibition was half-maximal at 0.046 ± 0.0037 µM (IC50).

In the case of `C(=C/c1cnco1)/c1ccc(NCc2cccs2)cc1` [cis-18, (Z)-4–(2-(oxazol-5-yl)vinyl)-N-(thiophen-2-ylmethyl)aniline], the IC50 in assay [1] (setting [2]) was 5.7 ± 0.8 µM; on recombinant human AChE it was 160 ± 100 µM. The “times more potent inhibitor of BChE than trans-12, trans-10 and trans-8” value in assay [1] (ratio of IC50 vs trans-12, trans-10, trans-8) is given as “about 5 times”.

On to `Nc1ccc(/C=C\c2cnco2)cc1` [cis-22, (Z)-4–(2-(oxazol-5-yl)vinyl)aniline], for which the half-inhibitory concentration (IC50) is 110 ± 58 µM in assay [1] (setting [2]) and 190 ± 100 µM at recombinant human AChE.

`C(=C\c1cnco1)/c1ccc(NCc2ccccc2)cc1` [trans-2, (E)-N-benzyl-4–(2-(oxazol-5-yl)vinyl)aniline]: the IC50 is 120 ± 22 µM in assay [1] (setting [2]) and greater than 100 µM on recombinant human AChE.

As for `Cc1ccc(CNc2ccc(/C=C/c3cnco3)cc2)cc1` [trans-3, (E)-N-(4-methylbenzyl)-4–(2-(oxazol-5-yl)vinyl)aniline], the IC50 is 120 ± 19 µM in assay [1] (setting [2]) and greater than 100 µM at recombinant human AChE.

Turning to `COc1ccc(CNc2ccc(/C=C/c3cnco3)cc2)cc1` [trans-4, (E)-N-(4-methoxybenzyl)-4–(2-(oxazol-5-yl)vinyl)aniline], the IC50 in assay [1] (setting [2]) was 110 ± 15 µM; at recombinant human AChE, greater than 100 µM.

As for `Clc1ccc(CNc2ccc(/C=C/c3cnco3)cc2)cc1` [trans-5, (E)-N-(4-chlorobenzyl)-4–(2-(oxazol-5-yl)vinyl)aniline], the IC50 in assay [1] (setting [2]) is 87 ± 12 µM; at recombinant human AChE, greater than 100 µM.

On to `Fc1ccc(CNc2ccc(/C=C/c3cnco3)cc2)cc1` [trans-6, (E)-N-(4-fluorobenzyl)-4–(2-(oxazol-5-yl)vinyl)aniline], for which the IC50 is 80 ± 10 µM in assay [1] (setting [2]) and greater than 100 µM at recombinant human AChE.

Consider `Cc1cccc(CNc2ccc(/C=C/c3cnco3)cc2)c1` [trans-7, (E)-N-(3-methylbenzyl)-4–(2-(oxazol-5-yl)vinyl)aniline], for which the IC50 in assay [1] (setting [2]) was 130 ± 26 µM; at recombinant human AChE, greater than 100 µM.

On to `COc1cccc(CNc2ccc(/C=C/c3cnco3)cc2)c1` [trans-8, (E)-N-(3-methoxybenzyl)-4–(2-(oksazol-5-yl)vinyl)aniline], for which the IC50 in assay [1] (setting [2]) was 36 ± 4.4 µM; on recombinant human AChE, greater than 100 µM.

Turning to `Fc1cccc(CNc2ccc(/C=C/c3cnco3)cc2)c1` [trans-10, (E)-N-(3-fluorobenzyl)-4–(2-(oxazol-5-yl)vinyl)aniline], the IC50 in assay [1] (setting [2]) is 32 ± 5.2 µM; on recombinant human AChE, greater than 100 µM.

In the case of `Cc1ccccc1CNc1ccc(/C=C/c2cnco2)cc1` [trans-11, (E)-N-(2-methylbenzyl)-4–(2-(oxazol-5-yl)vinyl)aniline], the IC50 in assay [1] (setting [2]) is 160 ± 35 µM; on recombinant human AChE it was greater than 100 µM. For the same molecule, the “fold lower BChE binding affinity than the most potent inhibitor trans-12” value in assay [1] (ratio of IC50 vs trans-12) turned out to be 5.5 fold.

`COc1ccccc1CNc1ccc(/C=C/c2cnco2)cc1` [trans-12, (E)-N-(2-methoxybenzyl)-4–(2-(oxazol-5-yl)vinyl)aniline]: the IC50 in assay [1] (setting [2]) is 28 ± 5.2 µM; at recombinant human AChE, greater than 100 µM.

On to `C(=C\c1cnco1)/c1ccc(NCc2ccco2)cc1` [trans-17, (E)-N-(furan-2-ylmethyl)-4–(2-(oxazol-5-yl)vinyl)aniline], for which the results for the IC50 (in assay [1] (setting [2]); on recombinant human AChE) were 65 ± 10 µM and greater than 100 µM, respectively.
